We go through 20 compounds from patent publication US11963939B2, “Use of N-acetylcysteine to treat central nervous system disorders” (Neuronasal, Inc., priority 2017, dated 2024).

Like-named read-outs stand apart in the source and are kept apart here.

The subject of one data set is primary cortical neurons. Briefly: cells. The conditions noted are these: for Protection against hemin-induced toxicity (in words): MTT. In kind it is cell-based, mouse. As for the experimental part:
Primary cortical neuronal cultures: Primary cortical neurons were collected from embryonic (E15) CD1 mice. The cortices of the mice were dissected, homogenized, and plated in minimum essential medium containing 10% fetal bovine serum (FBS), 5% horse serum, and 1% penicillin/streptomycin in 96-well plates, 6-well plates, or 10-cm dishes. The neurons were maintained at 37° C. with 5% CO2. All experiments were conducted 24 hours after plating.
In vitro ICH model: Ferroptosis is a type of programmed cell death that is dependent on iron, and is characterized by the accumulation of lipid peroxides. Ferroptosis is genetically and biochemically distinct from other forms of regulated cell death such as apoptosis. Ferroptosis is initiated by the failure of the glutathione-dependent antioxidant defenses, resulting in unchecked lipid peroxidation and eventual cell death.
Cell death was induced in primary cortical neurons by treating the neurons with hemin, a blood breakdown product. For the neuroprotection studies, cells were treated with hemin (100 μM) in the presence of NAC (0.1 mM to 1mM), 6-hydroxy-2,5,7,8-tetramethylchroman-2-carboxylic acid (trolox; 0.1 μM to 100 μM), β-carotene (0.1 μM to 100 μM) α-lipoic acid (0.01 mM to 2 mM), glutathione ethyl ester (1 mM to 10 mM), oxothiazolidine-4-carboxylate (1 mM to 10 mM), cystamine (0.1 μM to 10 μM), or nordihydroguaiaretic acid (0.1 μM to 10 μM). Cell viability was analyzed 24 h after treatment. The cells were rinsed with warm phosphate-buffered saline (PBS) and assessed using an MTT assay. The fidelity of the MTT assays in measuring viability was verified by calcein-AM/ethidium homodimer-1 staining (Live/Dead assay).
The ability of NAC to protect cells was investigated in a hemin model of hemorrhagic stroke. The in vitro model of ICH involved the administration of hemin, a breakdown product of hemoglobin from lysed blood, to trigger cell death. Treatment of primary cortical neurons with 100 μM hemin induced widespread cell death through a ferroptotic mechanism, which was quantified with MTT and qualitatively observed using live/dead staining. Living cells were labeled with calcein-AM, and dead cells were labeled with ethidium homodimer. […] Scale bars: 100 μm.
A systematic pharmacological screening of oxidized lipid species inhibitors in the context of hemin-induced cell death was performed in primary cortical neurons. Primary cortical neurons were co-treated with hemin and a non-specific or enzymatic lipid peroxidation inhibitor. The MTT assays were performed 18 h following the co-treatment.

Data set [1] deals with collagenase-induced mouse model of ICH. Briefly: In vivo collagenase-induced mouse model of ICH (Fluoro-Jade staining, corner task, adhesive tape removal task, hematoma size).
Description: In vivo collagenase-induced mouse model of ICH: Male C57BL/6 mice (8 to 10 weeks of age) or mice (10 to 12 weeks of age) were anesthetized with isoflurane (2% to 5%) and placed on a stereotaxic frame. During the procedure, the animal's body temperature was maintained at 37° C. with a homeothermic blanket. 1 mL of collagenase (0.075 IU) was infused into the right striatum at a flow rate of 0.120 μL/min using a Nanomite® syringe pump and a syringe. Relative to the bregma point, the stereotaxic coordinates of the injection were: lateral, −0.20; anteroposterior, 0.62; and dorsoventral, −0.40. In control animals, 1 mL of saline was infused. The treatment group received NAC (75 mg/kg or 300 mg/kg in normal saline, I.P.) once a day for 7 days starting at 2 h after collagenase infusion. For combinatorial studies, NAC (40 mg/kg, I.P.) and PGE 2 (10 μM, ICV) were administered to the mice 2 h after the collagenase injection, and then NAC (40 mg/kg) was administered once daily for 7 days. The control groups received the vehicle (normal saline) alone. The animals were randomized to sham or ICH groups. The identities of the mice that received vehicle or NAC were masked to surgeons who performed the experiments. […] Proper postoperative care was provided until the animals recovered completely.
Behavioral analysis: The corner task assessed integrated sensorimotor function in the stimulation of vibrissae (sensory neglect) and rearing (motor response). Mice were placed between two cardboard pieces that formed a corner with a 30° angle. While maintaining the 30° angle, the boards were gradually moved toward the mouse until the mouse approached the corner, reared upward, and turned 180° to face the open end. The direction (left or right) in which the mouse turned was recorded for each trial. Ten trials were performed for each mouse.
For the sensory neglect task (adhesive tape removal task), adhesive tape was placed on the planter region of the forward paw (right and left) of each mouse. The time from which the tape was applied to when the mouse successfully removed the tape was recorded for each paw. A maximum of 300 s for each paw was allowed.
Fluoro-Jade® B staining: Neurodegeneration of cells was assessed in mice with collagenase-induced ICH using Fluoro-Jade® B staining. 40 μM brain sections were mounted on gelatin-coated slides and dried at room temperature overnight. The sections were immersed in a graded series of alcohol solutions before being immersed in a 0.06% potassium permanganate (KMnO4) solution for 15 min. Sections were washed with water before being immersed in a 0.001% Fluoro-Jade® staining solution with gentle shaking in the dark for 30 min. The sections were then washed with water and dried overnight at room temperature in the dark before being dehydrated and coverslipped with DPX. Fluoro-Jade® B staining was examined within perihematoma or hematoma regions using a fluorescence microscope. Quantification of Fluoro-Jade® B staining was performed using three brain sections (anterior to posterior of hematoma) using Metamorph analysis.
The vehicle or NAC was then administered daily up to 7 days following the ictus. Neuronal loss was determined using a non-specific marker of neurodegeneration, Fluoro-Jade® staining. […] Mouse behavior was assessed using a corner task (spatial neglect) and an adhesive tape removal task (sensory neglect). Mouse behavior was assessed on day 1, 3, and 7 after the induction of ICH.
The target in another data set is T1, recombinant ALOX5 (Homo sapiens, UniProt P09917).
T1 sequence (P09917 1-674): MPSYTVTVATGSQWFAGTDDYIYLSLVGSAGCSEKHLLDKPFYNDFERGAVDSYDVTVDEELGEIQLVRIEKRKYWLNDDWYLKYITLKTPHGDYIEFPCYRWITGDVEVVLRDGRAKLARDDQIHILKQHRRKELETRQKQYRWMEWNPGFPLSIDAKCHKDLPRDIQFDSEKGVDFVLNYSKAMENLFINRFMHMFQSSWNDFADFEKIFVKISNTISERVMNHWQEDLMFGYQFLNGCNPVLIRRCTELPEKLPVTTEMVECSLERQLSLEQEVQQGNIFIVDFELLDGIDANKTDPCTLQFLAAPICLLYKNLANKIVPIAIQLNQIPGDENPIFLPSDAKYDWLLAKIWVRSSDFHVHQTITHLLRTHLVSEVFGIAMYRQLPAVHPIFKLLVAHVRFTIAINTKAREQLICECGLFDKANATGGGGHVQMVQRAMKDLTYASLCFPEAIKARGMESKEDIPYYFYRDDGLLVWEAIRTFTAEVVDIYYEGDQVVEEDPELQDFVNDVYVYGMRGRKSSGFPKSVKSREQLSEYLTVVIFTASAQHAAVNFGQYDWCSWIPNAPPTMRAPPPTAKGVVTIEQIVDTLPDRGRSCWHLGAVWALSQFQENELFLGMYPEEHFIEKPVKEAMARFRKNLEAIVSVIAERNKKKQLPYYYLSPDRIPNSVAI
Kind of data set: Lipoxygenase UV/Vis-based IC50 assay with recombinant ALOX5. In kind it is biochemical. The note with it: test tube assay. As for the experimental part: Lipoxygenase UV/Vis-based IC50 assay: Inhibition potencies were determined by following the formation of conjugated diene products, 5-HpETE [ε=27000 M^−1 cm^−1 for AA turnover) at 234 nm using a UV/Vis spectrophotometer. All reaction mixtures were 2 mL in volume, and the reaction mixtures were constantly stirred using a magnetic stir bar at room temperature (23° C.). All reactions were carried out in a buffer containing 200 μM ATP and 10 μM AA. The AA concentration of a sample was verified by full turnover with soybean-1 lipoxygenase and quantifying the product concentration. Inhibitors were stored in DMSO at −20° C. Enzymatic reactions were initiated by adding approximately 100 nM-300 nM ammonium sulfate-precipitated wildtype enzyme. IC50 values were obtained by determining the enzymatic rate at a minimum of five inhibitor concentrations, plotting the enzymatic rate against inhibitor concentration, and performing a hyperbolic saturation curve fit. Inhibitor concentrations were assayed in duplicate or triplicate.
Significance was determined by two-way ANOVA and Bonferroni's post hoc test.

The next data set relates to lipid protein adducts. Briefly: Hemin-induced lipid protein adduct formation (Bt-AA, streptavidin-HRP Western blot) in primary neurons. The conditions noted are these: for AA-protein adduct formation: non-protective doses: NAC 0.1 mM, vitamin E 1 μM, zileuton 1 μM; for Lipid protein adduct formation: protective doses: NAC 1 mM, vitamin E 10 μM, zileuton 10 μM. In kind it is cell-based, mouse. On the procedure:
Electrophilic attack by ALOX5 products could alter cellular protein-mediated signaling to trigger cell death. Arachidonic acid (AA) tagged with biotin (Bt-AA) was used to monitor the formation of covalent protein adducts. To test whether hemin was sufficient to catalyze the formation of protein-reactive lipid species, primary neurons were treated with hemin at concentrations of 5 μM-50 μM for 4 h. Lipid protein adducts were detected by Western blots probed with Streptavidin-HRP. Bt-AA incorporation into protein increased with increasing concentrations of hemin, and significant lipid protein adducts were detected at 50 μM hemin. […] The blot is representative from replicates of three experiments. The arrow indicates the decrease in lipid protein adduct formation.

The mark [2] stands for this setting: primary cortical neurons, 100 μM hemin.
The mark [3] stands for this setting: NAC 40 mg/kg i.p. and/or PGE2 10 μM ICV, days 1, 3, 7.
The mark [4] stands for this setting: Mus musculus, Primary cortical neuron, protection from 100 μM hemin, MTT (Table 2), read-out: EC50.
The mark [5] stands for this setting: protection from 100 μM hemin, MTT (Table 2), read-out: EC50.

For Hemin, the “% Viability” value in the data set on primary cortical neurons is recorded as 50.14%. The EC50 in the data set on primary cortical neurons (hemin itself (toxic stimulus), Table 2 EC50 column, read-out: EC50) came to 100 µM.
For the compound `COc1ccc2c(c1)c(CC(=O)O)c(C)n2C(=O)c1ccc(Cl)cc1` [Indomethacin], the “Protection against hemin-induced toxicity (in words)” value (“Protection … (in words)” for short) in the data set on primary cortical neurons (setting [2]) was “failed to protect against hemin toxicity”.
For the compound `CCCCC[C@H](O)/C=C/[C@H]1[C@H](O)CC(=O)[C@@H]1C/C=C\CCCC(=O)O` [PGE2, prostaglandin E2], in data set [1] (setting [3]), the “Sensory neglect (adhesive tape removal task) behavioral deficits” value is given as “no effect” and the “Spatial neglect (corner task) behavioral deficits” value is reported as “no effect”.
As for `CC(=O)Oc1ccccc1C(=O)O` [Aspirin], the “Protection … (in words)” value in the data set with primary cortical neurons (setting [2]) is recorded as “failed to protect against hemin toxicity”.
`CC(C=Cc1cccc(Oc2ccc(F)cc2)c1)N(O)C(N)=O` (centres unmarked) [BW B70]: the “Protection … (in words)” value in the data set on primary cortical neurons (setting [2]) is reported as “significantly reduced hemin-induced toxicity”.
In the case of `c1ccc2c(c1)SCc1c-2[nH]c2ccccc12` [PD146176], the “Protection … (in words)” value in the data set with primary cortical neurons (setting [2]) is listed as “failed to protect against hemin toxicity”.
With `CC(Cc1ccc(O)c(O)c1)C(C)Cc1ccc(O)c(O)c1` (centres unmarked) [Nordihydroguaiaretic acid], the EC50 in the data set with primary cortical neurons (setting [4]) is 5 µM. Moreover, the “Protection … (in words)” value with primary cortical neurons (setting [2]) is given as “prevented hemin-induced death as effectively as NAC”.
`CC(c1cc2ccccc2s1)N(O)C(N)=O` (centres unmarked) [Zileuton]: the EC50 in the data set with primary cortical neurons (Mus musculus, Primary cortical neuron, 100 μM hemin, primary cortical neurons, read-out: EC50 for reduction of hemin-induced toxicity/ferroptosis) turned out to be 7 µM. The “Inhibition of ALOX5 activity” value on recombinant ALOX5 is recorded as “effective in inhibiting ALOX5”. Further, in the data set with lipid protein adducts, the AA-protein adduct formation entry was “did not decrease AA-protein adduct formation” and the “Lipid protein adduct formation” value is on record as “decreased lipid protein adduct formation”.
On to `CC(=O)N(O)C/C=C/c1cccc(Oc2ccccc2)c1` [BW A4C], for which the EC50 with primary cortical neurons (100 μM hemin, primary cortical neurons, read-out: EC50 for reduction of hemin-induced toxicity/ferroptosis) amounted to 5 µM.
With `CCC(=O)NC(c1cccs1)c1cc([N+](=O)[O-])c2cccnc2c1O` (centres unmarked) [NCTT-956], in the data set with primary cortical neurons (setting [2]), the “Protection … (in words)” value is recorded as “failed to protect against hemin toxicity”.
With `O=C1NC(C(=O)O)CS1` (centres unmarked) [Oxothiazolidine-4-carboxylate], the “Protection … (in words)” value in the data set on primary cortical neurons (setting [2]) is “prevented hemin-induced death as effectively as NAC”. For the same compound, the EC50 in the data set on primary cortical neurons (setting [5]) turned out to be 2500 µM.
Turning to `CCCCC(C)(C)[C@H](O)/C=C/[C@H]1[C@H](O)CC(=O)[C@@H]1C/C=C\CCCC(=O)O` [dmPGE2, 16,16-dimethyl PGE2], the “Protection … (in words)” value in the data set with primary cortical neurons (setting [2]) is listed as “dose-dependently abrogated hemin-induced toxicity”. For the same compound, the “Neuronal degeneration in perihematomal regions (Fluoro-Jade staining)” value in data set [1] (NAC 40 mg/kg i.p. daily 7 days and/or dmPGE2 10 μM ICV 2 h post-injury) is “no significant effect”.
Regarding `Cc1c(C)c2c(c(C)c1O)CCC(C)(C(=O)O)O2` (centres unmarked) [trolox, 6-hydroxy-2,5,7,8-tetramethylchroman-2-carboxylic acid], the “Protection … (in words)” value with primary cortical neurons (setting [2]) is given as “abrogated hemin-induced toxicity in a dose-dependent manner”.
Regarding `NCCSSCCN` [Cystamine], in the data set with primary cortical neurons (setting [4]), the EC50 was 7.5 µM. Further, the “Protection … (in words)” value in the data set with primary cortical neurons (setting [2]) was “prevented hemin-induced death as effectively as NAC”.
On to `C#CCOc1ccccc1CCCCCC(=O)NS(C)(=O)=O` [MS-PPOH], for which the “Protection … (in words)” value in the data set on primary cortical neurons (setting [2]) is on record as “failed to protect against hemin toxicity”.
As for `Cc1c(C)c2c(c(C)c1O)CC[C@@](C)(CCC[C@H](C)CCC[C@H](C)CCCC(C)C)O2` [vitamin E, α-tocopherol], in the data set with lipid protein adducts, the AA-protein adduct formation result is on record as “did not decrease AA-protein adduct formation” and the “Lipid protein adduct formation” value was “decreased lipid protein adduct formation”.
As for `CC1=C(/C=C/C(C)=C/C=C/C(C)=C/C=C/C=C(C)/C=C/C=C(C)/C=C/C2=C(C)CCCC2(C)C)C(C)(C)CCC1` [β-carotene], in the data set with primary cortical neurons (setting [2]), the “Protection … (in words)” value is given as “protected against hemin-induced toxicity”. The “Inhibition of ALOX5 activity” value at recombinant ALOX5 is given as “did not inhibit ALOX5 activity”.
`CCCCS(=N)(=O)CCC(N)C(=O)O` (centres unmarked) [BSO, buthionine sulfoximine]: the “Effect on NAC-induced protection from hemin” value in the data set with primary cortical neurons (co-treatment with NAC and BSO) is reported as “reversed NAC-induced protection”.
On to `O=C(O)CCCCC1CCSS1` (stereo not drawn) [α-Lipoic acid, α-lipoic acid], for which the “Protection … (in words)” value in the data set with primary cortical neurons (setting [2]) is listed as “failed to prevent hemin toxicity at any dose examined”.
Take `CCOC(=O)CNC(=O)[C@H](CS)NC(=O)CC[C@H](N)C(=O)O` [Glutathione ethyl ester]: the “Protection … (in words)” value in the data set on primary cortical neurons (setting [2]) was “prevented hemin-induced death as effectively as NAC”. Moreover, the EC50 with primary cortical neurons (setting [5]) turned out to be 2500 µM.
